Results taken from ChEMBL document CHEMBL2331252, “Facile one-pot synthesis of novel dispirooxindole-pyrrolidine derivatives and their antimicrobial and anticancer activity against A549 human lung adenocarcinoma cancer cell line” (Bioorg Med Chem Lett, 2013).
≈ marks a conversion by molar mass, not a printed value. Calls of active or inactive are those of the source. No cut-off for these calls is given here.

Assays:
A549 [1] = assay: Cytotoxicity against human A549 cells assessed as cell death at 50 ug/ml by MTT assay; type: functional
Micrococcus luteus [2] = assay: Antibacterial activity against Micrococcus luteus MTCC 106 at 1 mg/disc after 24 hrs by disc diffusion method; type: functional
Candida albicans [3] = assay: Antifungal activity against Candida albicans MTCC 227 at 1 mg/disc after 48 hrs by disc diffusion method; type: functional
A549 [4] = assay: Cytotoxicity against human A549 cells assessed as cell death at 100 ug/ml by MTT assay; type: functional
Proteus vulgaris [5] = assay: Antibacterial activity against Proteus vulgaris MTCC 1771 after 24 hrs; type: functional
Klebsiella pneumoniae [6] = assay: Antibacterial activity against Klebsiella pneumoniae MTCC 109 at 1 mg/disc after 24 hrs by disc diffusion method; type: functional
Shigella flexneri [7] = assay: Antibacterial activity against Shigella flexneri MTCC 1457 at 1 mg/disc after 24 hrs by disc diffusion method; type: functional
Shigella flexneri [8] = assay: Antibacterial activity against Shigella flexneri MTCC 1457 after 24 hrs; type: functional; details: MTCC 1457, 24 h
Salmonella typhimurium [9] = assay: Antibacterial activity against Salmonella typhimurium MTCC 1251 after 24 hrs; type: functional, Salmonella enterica subsp. enterica serovar Typhimurium
Klebsiella pneumoniae [10] = assay: Antibacterial activity against Klebsiella pneumoniae MTCC 109 after 24 hrs; type: functional; details: MTCC 109, 24 h
Staphylococcus aureus [11] = assay: Antibacterial activity against methicillin-resistant Staphylococcus aureus after 24 hrs; type: functional
Staphylococcus aureus [12] = assay: Antibacterial activity against Staphylococcus aureus MTCC 96 at 1 mg/disc after 24 hrs by disc diffusion method; type: functional
Staphylococcus aureus [13] = assay: Antibacterial activity against Staphylococcus aureus MTCC 96 after 24 hrs; type: functional; details: MTCC 96, 24 h
Micrococcus luteus [14] = assay: Antibacterial activity against Micrococcus luteus MTCC 106 after 24 hrs; type: functional; details: MTCC 106, 24 h
Staphylococcus aureus [15] = assay: Antibacterial activity against methicillin-resistant Staphylococcus aureus at 1 mg/disc after 24 hrs by disc diffusion method; type: functional
Candida albicans [16] = assay: Antifungal activity against Candida albicans MTCC 227 after 48 to 72 hrs; type: functional
Salmonella typhimurium [17] = assay: Antibacterial activity against Salmonella typhimurium MTCC 1251 at 1 mg/disc after 24 hrs by disc diffusion method; type: functional, Salmonella enterica subsp. enterica serovar Typhimurium; details: for inhibition: Salmonella enterica subsp. enterica serovar Typhimurium
Klebsiella aerogenes [18] = assay: Antibacterial activity against Enterobacter aerogenes MTCC 111 at 1 mg/disc after 24 hrs by disc diffusion method; type: functional
Proteus vulgaris [19] = assay: Antibacterial activity against Proteus vulgaris MTCC 1771 at 1 mg/disc after 24 hrs by disc diffusion method; type: functional
A549 [20] = assay: Cytotoxicity against human A549 cells assessed as cell death at 200 ug/ml by MTT assay; type: functional
[21] = Antifungal activity against Malassezia pachydermatis at 1 mg/disc after 48 hrs by disc diffusion method; type: functional
Klebsiella aerogenes [22] = assay: Antibacterial activity against Enterobacter aerogenes MTCC 111 after 24 hrs; type: functional
[23] = Salmonella enterica, MTCC 1251, 24 h
[24] = Salmonella enterica subsp. enterica serovar Typhimurium

Structure (SMILES)	Activity (A549 [1])	inhibition zone (IZ) (Micrococcus luteus [2])	inhibition zone (IZ) (Candida albicans [3])	Activity (A549 [4])	MIC (Proteus vulgaris [5]; MTCC 1771, 24 h)	inhibition zone (IZ) (Klebsiella pneumoniae [6])	inhibition zone (IZ) (Shigella flexneri [7])	MIC (Shigella flexneri [8])	MIC (Salmonella typhimurium [9]; [23])	MIC (Klebsiella pneumoniae [10])	MIC (Staphylococcus aureus [11])	inhibition zone (IZ) (Staphylococcus aureus [12])	MIC (Staphylococcus aureus [13])	MIC (Micrococcus luteus [14])	inhibition zone (IZ) (Staphylococcus aureus [15])	MIC (Candida albicans [16])	inhibition zone (IZ) (Salmonella typhimurium [17])	inhibition zone (IZ) (Klebsiella aerogenes [18])	inhibition zone (IZ) (Proteus vulgaris [19])	Activity (A549 [20])	further results
CN1C(=O)[C@@]2(c3cc(I)ccc31)N(C)C[C@](C#N)(C(=O)c1c[nH]c3ccccc13)[C@]21C(=O)Nc2ccccc21	4.34%	11 mm	9 mm	12.66%	500 µg/mL (≈ 797 µM)	9 mm	10 mm	500 µg/mL (≈ 797 µM)	500 µg/mL (≈ 797 µM)	500 µg/mL (≈ 797 µM)	125 µg/mL (≈ 199 µM)	11 mm	125 µg/mL (≈ 199 µM)	125 µg/mL (≈ 199 µM)	12 mm	500 µg/mL (≈ 797 µM)	10 mm	13 mm	9 mm	26.85%	inhibition zone (IZ) [21]: 11 mm; MIC (Klebsiella aerogenes [22]; MTCC 111, 24 h): 125 µg/mL (≈ 199 µM)
Cc1ccc2c(c1)[C@]1(C(=O)N2C)N(C)C[C@](C#N)(C(=O)c2c[nH]c3ccccc23)[C@]12C(=O)Nc1ccccc12	0.66%	10 mm	8 mm	10.73%	125 µg/mL (≈ 242 µM)	11 mm	11 mm	125 µg/mL (≈ 242 µM)	500 µg/mL (≈ 970 µM)	125 µg/mL (≈ 242 µM)	500 µg/mL (≈ 970 µM)	9 mm	500 µg/mL (≈ 970 µM)	500 µg/mL (≈ 970 µM)	8 mm	500 µg/mL (≈ 970 µM)	9 mm	13 mm	12 mm	15.12%	inhibition [21]: inactive; MIC (Klebsiella aerogenes [22]; MTCC 111, 24 h): 125 µg/mL (≈ 242 µM)
CCCCCCN1C(=O)[C@@]2(c3ccccc31)N(C)C[C@](C#N)(C(=O)c1c[nH]c3ccccc13)[C@]21C(=O)Nc2ccccc21	48.03%	10 mm	–	56.74%	500 µg/mL (≈ 875 µM)	11 mm	10 mm	500 µg/mL (≈ 875 µM)	500 µg/mL (≈ 875 µM)	125 µg/mL (≈ 219 µM)	500 µg/mL (≈ 875 µM)	11 mm	125 µg/mL (≈ 219 µM)	500 µg/mL (≈ 875 µM)	10 mm	inactive	9 mm	9 mm	9 mm	62.03%	inhibition (Candida albicans [3]): inactive; inhibition [21]: inactive; MIC (Klebsiella aerogenes [22]; MTCC 111, 24 h): 500 µg/mL (≈ 875 µM)
CN1C(=O)[C@@]2(c3cc(F)ccc31)N(C)C[C@](C#N)(C(=O)c1c[nH]c3ccccc13)[C@]21C(=O)Nc2ccccc21	1.41%	10 mm	9 mm	12.22%	500 µg/mL (≈ 962 µM)	9 mm	9 mm	500 µg/mL (≈ 962 µM)	500 µg/mL (≈ 962 µM)	500 µg/mL (≈ 962 µM)	500 µg/mL (≈ 962 µM)	10 mm	500 µg/mL (≈ 962 µM)	500 µg/mL (≈ 962 µM)	9 mm	500 µg/mL (≈ 962 µM)	8 mm	11 mm	8 mm	25.51%	inhibition [21]: inactive; MIC (Klebsiella aerogenes [22]; MTCC 111, 24 h): 125 µg/mL (≈ 241 µM)
CN1C(=O)[C@@]2(c3cc(Cl)ccc31)N(C)C[C@](C#N)(C(=O)c1c[nH]c3ccccc13)[C@]21C(=O)Nc2ccccc21	3.76%	12 mm	–	12.98%	125 µg/mL (≈ 233 µM)	10 mm	9 mm	500 µg/mL (≈ 933 µM)	500 µg/mL (≈ 933 µM)	125 µg/mL (≈ 233 µM)	500 µg/mL (≈ 933 µM)	9 mm	500 µg/mL (≈ 933 µM)	125 µg/mL (≈ 233 µM)	10 mm	inactive	9 mm	11 mm	11 mm	22.21%	inhibition (Candida albicans [3]): inactive; inhibition [21]: inactive; MIC (Klebsiella aerogenes [22]; MTCC 111, 24 h): 125 µg/mL (≈ 233 µM)
CN1C[C@](C#N)(C(=O)c2c[nH]c3ccccc23)[C@]2(C(=O)Nc3ccccc32)[C@@]12C(=O)Nc1ccc(F)cc12	3.6%	9 mm	11 mm	10.82%	–	8 mm	9 mm	500 µg/mL (≈ 989 µM)	–	500 µg/mL (≈ 989 µM)	500 µg/mL (≈ 989 µM)	12 mm	125 µg/mL (≈ 247 µM)	500 µg/mL (≈ 989 µM)	10 mm	125 µg/mL (≈ 247 µM)	–	9 mm	–	16.79%	MIC (Proteus vulgaris [5]): inactive; MIC (Salmonella typhimurium [9]; [24]): inactive; inhibition (Salmonella typhimurium [17]): inactive; inhibition (Proteus vulgaris [19]): inactive; inhibition [21]: inactive; MIC (Klebsiella aerogenes [22]; MTCC 111, 24 h): 500 µg/mL (≈ 989 µM)
CN1C[C@](C#N)(C(=O)c2c[nH]c3ccccc23)[C@]2(C(=O)Nc3ccccc32)[C@@]12C(=O)Nc1ccc(I)cc12	4.19%	8 mm	10 mm	9.66%	500 µg/mL (≈ 815 µM)	13 mm	8 mm	1000 µg/mL (≈ 1630 µM)	500 µg/mL (≈ 815 µM)	250 µg/mL (≈ 408 µM)	1000 µg/mL (≈ 1630 µM)	10 mm	500 µg/mL (≈ 815 µM)	1000 µg/mL (≈ 1630 µM)	8 mm	500 µg/mL (≈ 815 µM)	11 mm	9 mm	9 mm	17.58%	inhibition [21]: inactive; MIC (Klebsiella aerogenes [22]): inactive
CCCCN1C(=O)[C@@]2(c3ccccc31)N(C)C[C@](C#N)(C(=O)c1c[nH]c3ccccc13)[C@]21C(=O)Nc2ccccc21	4.27%	8 mm	8 mm	19.6%	–	8 mm	9 mm	500 µg/mL (≈ 920 µM)	500 µg/mL (≈ 920 µM)	500 µg/mL (≈ 920 µM)	500 µg/mL (≈ 920 µM)	9 mm	500 µg/mL (≈ 920 µM)	500 µg/mL (≈ 920 µM)	11 mm	500 µg/mL (≈ 920 µM)	10 mm	10 mm	–	32.25%	MIC (Proteus vulgaris [5]): inactive; inhibition (Proteus vulgaris [19]): inactive; inhibition [21]: inactive; MIC (Klebsiella aerogenes [22]; MTCC 111, 24 h): 500 µg/mL (≈ 920 µM)
CN1C(=O)[C@@]2(c3ccccc31)N(C)C[C@](C#N)(C(=O)c1c[nH]c3ccccc13)[C@]21C(=O)Nc2ccccc21	1.71%	11 mm	12 mm	7.22%	125 µg/mL (≈ 249 µM)	13 mm	12 mm	250 µg/mL (≈ 498 µM)	500 µg/mL (≈ 997 µM)	125 µg/mL (≈ 249 µM)	500 µg/mL (≈ 997 µM)	13 mm	250 µg/mL (≈ 498 µM)	250 µg/mL (≈ 498 µM)	11 mm	250 µg/mL (≈ 498 µM)	10 mm	8 mm	14 mm	13.99%	inhibition [21]: inactive; MIC (Klebsiella aerogenes [22]): inactive
CN1C[C@](C#N)(C(=O)c2c[nH]c3ccccc23)[C@]2(C(=O)Nc3ccccc32)[C@@]12C(=O)N(Cc1ccccc1)c1ccccc12	9.26%	9 mm	9 mm	16.03%	500 µg/mL (≈ 866 µM)	11 mm	7 mm	500 µg/mL (≈ 866 µM)	–	125 µg/mL (≈ 216 µM)	500 µg/mL (≈ 866 µM)	11 mm	125 µg/mL (≈ 216 µM)	500 µg/mL (≈ 866 µM)	9 mm	500 µg/mL (≈ 866 µM)	–	10 mm	9 mm	23.95%	MIC (Salmonella typhimurium [9]; [24]): inactive; inhibition (Salmonella typhimurium [17]): inactive; inhibition zone (IZ) [21]: 10 mm; MIC (Klebsiella aerogenes [22]; MTCC 111, 24 h): 500 µg/mL (≈ 866 µM)
CCN1C(=O)[C@@]2(c3ccccc31)N(C)C[C@](C#N)(C(=O)c1c[nH]c3ccccc13)[C@]21C(=O)Nc2ccccc21	7.16%	11 mm	8 mm	18.61%	500 µg/mL (≈ 970 µM)	10 mm	9 mm	500 µg/mL (≈ 970 µM)	500 µg/mL (≈ 970 µM)	500 µg/mL (≈ 970 µM)	500 µg/mL (≈ 970 µM)	9 mm	500 µg/mL (≈ 970 µM)	500 µg/mL (≈ 970 µM)	11 mm	500 µg/mL (≈ 970 µM)	7 mm	8 mm	9 mm	26.58%	inhibition [21]: inactive; MIC (Klebsiella aerogenes [22]; MTCC 111, 24 h): 500 µg/mL (≈ 970 µM)
